Source: patent US20240245617A1, “LIPID-BASED TOPICAL INJECTION FORMULATIONS” (Beijing Jitai Pharmaceutical Technology Co., Ltd., priority 2022, published 2024)

What was measured:
[1] = Encapsulation efficiency of lipid nanoparticles, Quant-it RiboGreen RNA Assay; type: physicochemical; conditions: LNP ionizable lipid/cholesterol/DSPC/DMG-PEG2000 50/38.5/10/1.5 mol%, N/P 6, luciferase mRNA
Experimental: (§1) The particle size and particle size dispersity index (polydispersity index, PDI) of the prepared lipid nanoparticles were measured using a Zetasizer Pro (purchased from Malvern Instruments Ltd) and a DynaPro NanoStar (purchased from Wyatt) dynamic light scattering instrument. The degree of RNA encapsulation by lipid nanoparticles was characterized by the Encapsulation Efficiency %, which reflects the degree of binding of lipid nanoparticles to RNA fragments. This parameter was measured by the method of Quant-it™ RiboGreen RNA Assay (purchased from Invitrogen). Lipid nanoparticle samples were diluted in TE buffer (10 mM Tris-HCl, 1 mM EDTA, pH=7.5). A portion of the sample solution was removed, to which 0.5% Triton (Triton X-100) was added, and then allowed to stand at […] for 30 minutes. Immediately after the addition of RIBOGREEN® reaction solution, the fluorescence values were read on a Varioskan LUX multifunctional microplate reader (purchased from Thermofisher) at 485 nm for absorption and 528 nm for emission to give the encapsulation efficiency values.
The produced lipid nanoparticles were characterized using the same method as in Assay example 2, and the results are shown in Table 6 (the percentage content of each component is represented by molar percentage).

[2] = Particle size and PDI of lipid nanoparticles by dynamic light scattering; type: physicochemical; conditions: LNP ionizable lipid/cholesterol/DSPC/DMG-PEG2000 50/38.5/10/1.5 mol%, N/P 6, luciferase mRNA
Experimental: as §1
The preparation of lipid nanoparticles includes microfluidic mixing system, but is not limited to this method, which also includes T-type mixer and ethanol injection method, etc.

C57BL/6 mice = assay: In vivo bioluminescence after intravenous administration of lipid nanoparticles encapsulating luciferase mRNA; conditions: 0.5 mg/kg mRNA, liver
Experimental: The delivery effect and safety of nanoparticles encapsulating luciferase mRNA (Trilink, L-7202) in mice were evaluated. The test mice were SPF-grade C57BL/6 mice, female, 6-8 weeks old, weighing 18-22 g, and were purchased from SPF (Beijing) Biotechnology Co., Ltd. All animals were acclimatized for more than 7 days prior to the experiment, and had free access to food and water during the experiment. The conditions include alternating light and dark for 12/12 h, the indoor temperature of 20-26° C. and the humidity of 40-70%. The mice were randomly grouped. The lipid nanoparticles encapsulating luciferase mRNA prepared above were injected into mice by intravenous administration at a single dose of 0.5 mg/kg mRNA, and the mice were subjected to in vivo bioluminescence assay using a Small Animal In Vivo Imaging System (IVIS LUMINA III, purchased from PerkinElmer) at 6 h after administration. The assay was performed as follows: D-luciferin solution was prepared in saline at a concentration of 15 mg/mL, and each mouse was given the substrate by intraperitoneal injection. At ten minutes after administration of the substrate, the mice were anesthetized in an anesthesia chamber with isoflurane at a concentration of 2.5%. […] Data acquisition and analysis were performed on the liver.
The in vivo delivery efficiency of lipid nanoparticle carriers was expressed as the mean values of fluorescence intensity and total photon count in different animals within the same subject group, as shown in Table 4. Higher values of fluorescence intensity and total photon count indicate higher in vivo delivery efficiency of this mRNA fragment by lipid nanoparticles. The lipid nanoparticles containing the cationic lipids of the present disclosure have good in vivo delivery efficiency and mainly target the liver.

| Structure (SMILES) | Encapsulation efficiency (%) [1] [%] | Particle size (nm) [2] [nm] | Particle size dispersity (PDI) [2] | Total photon count in vivo at 6 hours after administration (Total Flux) (C57BL/6 mice) |
| --- | --- | --- | --- | --- |
| CCCCCCCCCSC(=O)C(C)(C)CCCCCC(CCCCCC(C)(C)C(=O)OCC#CC(CCCC)CCCC)OC(=O)CCCN(C)C (stereo not shown) [Compound 119] | 86.92 | 80.98 | 0.05 | 3.25E+10 |
| CCCCCCCCCSC(=O)C(C)(C)CCCCCC(CCCCCC(C)(C)C(=O)OCC#CCC(CCCC)CCCC)OC(=O)CCCN(C)C (stereo not shown) [Compound 121] | 93.62 | 103.57 | 0.06 | >4.00E+10 |
| CCCCCCCCCOC(=O)C(C)(C)CCCCCCC(CCCCCCC(C)(C)C(=O)OCC(CCCCC)CCCCCCC)OC(=O)CCCCN(C)C (stereo not shown) [Compound 126] | – | – | – | 1.77E+10 |
| CCCCCCCCCN(CCCCCCCCC)C(=O)C(C)(C)CCCCCC(CCCCCC(C)(C)C(=O)N(CCCCCCCCC)CCCCCCCCC)OC(=O)CCN(C)C [Compound 12] | – | – | – | 1.10E+09 |
| CCCCCCCCCCSC(=O)C(C)(C)CCCCCC(CCCCCC(C)(C)C(=O)SCCCCCCCCCC)OC(=O)C1CCN(C(C)C)CC1 [Compound 105] | – | – | – | 3.33E+09 |
| CCCC/C=C\CCCCOC(=O)C(C)(C)CCCCCC(CCCCCC(C)(C)C(=O)OCCCC/C=C\CCCC)OC(=O)CCCN(C)C [Compound 28] | 80.36 | 138.16 | 0.06 | 3.21E+09 |
| CCCCCCCCCSC(=O)C(C)(C)CCCCCC(CCCCCC(C)(C)C(=O)SCCCCCCCCC)OC(=O)CC1CCN(CC)CC1 [Compound 109] | – | – | – | 1.32E+10 |
| CCCCCCCCCSC(=O)C(C)(C)CCCCCC(CCCCCC(C)(C)C(=O)SCCCCCCCCC)OC(=O)CC1CCN(C)CC1 [Compound 108] | – | – | – | 1.21E+10 |
| CCCCCCCCCSC(=O)C(C)(C)CCCCCC(CCCCCC(C)(C)C(=O)SCCCCCCCCC)OC(=O)C1CCN(C(C)C)CC1 [Compound 107] | – | – | – | 1.36E+10 |
| CCCCCCCCCCSC(=O)C(C)(C)CCCCCC(CCCCCC(C)(C)C(=O)SCCCCCCCCCC)OC(=O)CCCCCN(C)C [Compound 36] | – | – | – | 4.84E+09 |
